Laboratory results: US6403082B1, “Bacteriocins, transport and vector system and method of use thereof” (priority 1996, dated 2002)
Several values for one entry are separate records, joined by “and”; a condition that tells them apart may be missing. Equal entries are not always repeated. Marks after values point to notes of the source that are not given here. Ends that are not written are not given here.

Tests used:
Assay in all cases: Spot test of partially purified bacteriocins on strains grown on agar
[1] = test system: Streptococcus
[2] = test system: Lactobacillus
[3] = test system: G negative strains; assay type: cell-based
[4] = test system: Enterococcus
[5] = test system: Bacillus vegetative cells; assay type: cell-based
[6] = test system: Bacillus spores; assay type: cell-based
[7] = test system: Listeria
[8] = test system: Lactococcus
[9] = test system: Leuconostoc
[10] = test system: Carnobacteria
[11] = test system: Clostridia spores; assay type: cell-based, Clostridium
[12] = test system: Staphylococcus
[13] = test system: Clostridia vegetative cells; assay type: cell-based, Clostridium
[14] = test system: Brochothrix
[15] = test system: Pediococcus

Nisin
Number of strains inhibited/Number of strains tested ([1]; 1AU (10 μl/spot of 100 AU/ml)): 1/3
Number of strains inhibited/Number of strains tested ([1]; 8AU (10 μl/spot of 800 AU/ml)): 2/3
Number of strains inhibited/Number of strains tested ([2]; 1AU (10 μl/spot of 100 AU/ml)): 16/17
Number of strains inhibited/Number of strains tested ([2]; 8AU (10 μl/spot of 800 AU/ml)): 17/17
Number of strains inhibited/Number of strains tested ([3]; 1AU (10 μl/spot of 100 AU/ml)): 0/29
Number of strains inhibited/Number of strains tested ([3]; 8AU (10 μl/spot of 800 AU/ml)): 0/29
Number of strains inhibited/Number of strains tested ([4]; 1AU (10 μl/spot of 100 AU/ml)): 12/14
Number of strains inhibited/Number of strains tested ([4]; 8AU (10 μl/spot of 800 AU/ml)): 14/14
Number of strains inhibited/Number of strains tested ([5]; 1AU (10 μl/spot of 100 AU/ml)): 5/5
Number of strains inhibited/Number of strains tested ([5]; 8AU (10 μl/spot of 800 AU/ml)): 5/5
Number of strains inhibited/Number of strains tested ([6]; 1AU (10 μl/spot of 100 AU/ml)): 5/5
Number of strains inhibited/Number of strains tested ([6]; 8AU (10 μl/spot of 800 AU/ml)): 5/5
Number of strains inhibited/Number of strains tested ([7]; 1AU (10 μl/spot of 100 AU/ml)): 42/42
Number of strains inhibited/Number of strains tested ([7]; 8AU (10 μl/spot of 800 AU/ml)): 42/42
Number of strains inhibited/Number of strains tested ([8]; 1AU (10 μl/spot of 100 AU/ml)): 4/8
Number of strains inhibited/Number of strains tested ([8]; 8AU (10 μl/spot of 800 AU/ml)): 6/8^t and 6/8
Number of strains inhibited/Number of strains tested ([9]; 1AU (10 μl/spot of 100 AU/ml)): 9/9
Number of strains inhibited/Number of strains tested ([9]; 8AU (10 μl/spot of 800 AU/ml)): 9/9
Number of strains inhibited/Number of strains tested ([10]; 1AU (10 μl/spot of 100 AU/ml)): 19/19
Number of strains inhibited/Number of strains tested ([10]; 8AU (10 μl/spot of 800 AU/ml)): 19/19
Number of strains inhibited/Number of strains tested ([11]; 1AU (10 μl/spot of 100 AU/ml)): 5/7
Number of strains inhibited/Number of strains tested ([11]; 8AU (10 μl/spot of 800 AU/ml)): 7/7
Number of strains inhibited/Number of strains tested ([12]; 1AU (10 μl/spot of 100 AU/ml)): 3/7
Number of strains inhibited/Number of strains tested ([12]; 8AU (10 μl/spot of 800 AU/ml)): 7/7
Number of strains inhibited/Number of strains tested ([13]; 1AU (10 μl/spot of 100 AU/ml)): 7/8
Number of strains inhibited/Number of strains tested ([13]; 8AU (10 μl/spot of 800 AU/ml)): 8/8
Number of strains inhibited/Number of strains tested ([14]; 1AU (10 μl/spot of 100 AU/ml)): 14/14
Number of strains inhibited/Number of strains tested ([14]; 8AU (10 μl/spot of 800 AU/ml)): 14/14
Number of strains inhibited/Number of strains tested ([15]; 1AU (10 μl/spot of 100 AU/ml)): 3/3
Number of strains inhibited/Number of strains tested ([15]; 8AU (10 μl/spot of 800 AU/ml)): 3/3

Pedi PA-1: pediocin PA-1, a bacteriocin from Pediococcus acidilactici PAC1.0 (KYYGNGVTCGKHSCSVDWGKATTCIINNGAMAWATGGHQGNHKC; ends and bridges not checked; cysteine pairing not given here; UniProt P29430 19-62, looked up)
Number of strains inhibited/Number of strains tested ([1]; 1AU (10 μl/spot of 100 AU/ml)): 0/3
Number of strains inhibited/Number of strains tested ([1]; 8AU (10 μl/spot of 800 AU/ml)): 0/3
Number of strains inhibited/Number of strains tested ([2]; 1AU (10 μl/spot of 100 AU/ml)): 1/17
Number of strains inhibited/Number of strains tested ([2]; 8AU (10 μl/spot of 800 AU/ml)): 2/17
Number of strains inhibited/Number of strains tested ([3]; 1AU (10 μl/spot of 100 AU/ml)): 0/29
Number of strains inhibited/Number of strains tested ([3]; 8AU (10 μl/spot of 800 AU/ml)): 0/29
Number of strains inhibited/Number of strains tested ([4]; 1AU (10 μl/spot of 100 AU/ml)): 7/14
Number of strains inhibited/Number of strains tested ([4]; 8AU (10 μl/spot of 800 AU/ml)): 11/14
Number of strains inhibited/Number of strains tested ([5]; 1AU (10 μl/spot of 100 AU/ml)): 2/5
Number of strains inhibited/Number of strains tested ([5]; 8AU (10 μl/spot of 800 AU/ml)): 2/5
Number of strains inhibited/Number of strains tested ([6]; 1AU (10 μl/spot of 100 AU/ml)): 0/5
Number of strains inhibited/Number of strains tested ([6]; 8AU (10 μl/spot of 800 AU/ml)): 0/5
Number of strains inhibited/Number of strains tested ([7]; 1AU (10 μl/spot of 100 AU/ml)): 39/42
Number of strains inhibited/Number of strains tested ([7]; 8AU (10 μl/spot of 800 AU/ml)): 40/42
Number of strains inhibited/Number of strains tested ([8]; 1AU (10 μl/spot of 100 AU/ml)): 0/8
Number of strains inhibited/Number of strains tested ([8]; 8AU (10 μl/spot of 800 AU/ml)): 0/8
Number of strains inhibited/Number of strains tested ([9]; 1AU (10 μl/spot of 100 AU/ml)): 4/9
Number of strains inhibited/Number of strains tested ([9]; 8AU (10 μl/spot of 800 AU/ml)): 5/9
Number of strains inhibited/Number of strains tested ([10]; 1AU (10 μl/spot of 100 AU/ml)): 7/19
Number of strains inhibited/Number of strains tested ([10]; 8AU (10 μl/spot of 800 AU/ml)): 7/19
Number of strains inhibited/Number of strains tested ([11]; 1AU (10 μl/spot of 100 AU/ml)): 0/7
Number of strains inhibited/Number of strains tested ([11]; 8AU (10 μl/spot of 800 AU/ml)): 0/7
Number of strains inhibited/Number of strains tested ([12]; 1AU (10 μl/spot of 100 AU/ml)): 0/7
Number of strains inhibited/Number of strains tested ([12]; 8AU (10 μl/spot of 800 AU/ml)): 1/7
Number of strains inhibited/Number of strains tested ([13]; 1AU (10 μl/spot of 100 AU/ml)): 0/8
Number of strains inhibited/Number of strains tested ([13]; 8AU (10 μl/spot of 800 AU/ml)): 0/8
Number of strains inhibited/Number of strains tested ([14]; 1AU (10 μl/spot of 100 AU/ml)): 0/14
Number of strains inhibited/Number of strains tested ([14]; 8AU (10 μl/spot of 800 AU/ml)): 0/14
Number of strains inhibited/Number of strains tested ([15]; 1AU (10 μl/spot of 100 AU/ml)): 0/3
Number of strains inhibited/Number of strains tested ([15]; 8AU (10 μl/spot of 800 AU/ml)): 2/3

cbn A
Number of strains inhibited/Number of strains tested ([1]; 1AU (10 μl/spot of 100 AU/ml)): 0/3
Number of strains inhibited/Number of strains tested ([1]; 8AU (10 μl/spot of 800 AU/ml)): 0/3
Number of strains inhibited/Number of strains tested ([2]; 1AU (10 μl/spot of 100 AU/ml)): 0/17
Number of strains inhibited/Number of strains tested ([2]; 8AU (10 μl/spot of 800 AU/ml)): 1/17
Number of strains inhibited/Number of strains tested ([3]; 1AU (10 μl/spot of 100 AU/ml)): 0/29
Number of strains inhibited/Number of strains tested ([3]; 8AU (10 μl/spot of 800 AU/ml)): 0/29
Number of strains inhibited/Number of strains tested ([4]; 1AU (10 μl/spot of 100 AU/ml)): 2/14
Number of strains inhibited/Number of strains tested ([4]; 8AU (10 μl/spot of 800 AU/ml)): 2/14
Number of strains inhibited/Number of strains tested ([5]; 1AU (10 μl/spot of 100 AU/ml)): 2/5
Number of strains inhibited/Number of strains tested ([5]; 8AU (10 μl/spot of 800 AU/ml)): 2/5
Number of strains inhibited/Number of strains tested ([6]; 1AU (10 μl/spot of 100 AU/ml)): 0/5
Number of strains inhibited/Number of strains tested ([6]; 8AU (10 μl/spot of 800 AU/ml)): 0/5
Number of strains inhibited/Number of strains tested ([7]; 1AU (10 μl/spot of 100 AU/ml)): 4/42
Number of strains inhibited/Number of strains tested ([7]; 8AU (10 μl/spot of 800 AU/ml)): 21/42
Number of strains inhibited/Number of strains tested ([8]; 1AU (10 μl/spot of 100 AU/ml)): 0/8
Number of strains inhibited/Number of strains tested ([8]; 8AU (10 μl/spot of 800 AU/ml)): 0/8
Number of strains inhibited/Number of strains tested ([9]; 1AU (10 μl/spot of 100 AU/ml)): 1/9
Number of strains inhibited/Number of strains tested ([9]; 8AU (10 μl/spot of 800 AU/ml)): 1/9
Number of strains inhibited/Number of strains tested ([10]; 1AU (10 μl/spot of 100 AU/ml)): 0/14
Number of strains inhibited/Number of strains tested ([10]; 8AU (10 μl/spot of 800 AU/ml)): 0/14
Number of strains inhibited/Number of strains tested ([11]; 1AU (10 μl/spot of 100 AU/ml)): 0/7
Number of strains inhibited/Number of strains tested ([11]; 8AU (10 μl/spot of 800 AU/ml)): 0/7
Number of strains inhibited/Number of strains tested ([12]; 1AU (10 μl/spot of 100 AU/ml)): 0/7
Number of strains inhibited/Number of strains tested ([12]; 8AU (10 μl/spot of 800 AU/ml)): 1/7
Number of strains inhibited/Number of strains tested ([13]; 1AU (10 μl/spot of 100 AU/ml)): 0/8
Number of strains inhibited/Number of strains tested ([13]; 8AU (10 μl/spot of 800 AU/ml)): 0/8
Number of strains inhibited/Number of strains tested ([14]; 1AU (10 μl/spot of 100 AU/ml)): 0/14
Number of strains inhibited/Number of strains tested ([14]; 8AU (10 μl/spot of 800 AU/ml)): 0/14
Number of strains inhibited/Number of strains tested ([15]; 1AU (10 μl/spot of 100 AU/ml)): 0/3
Number of strains inhibited/Number of strains tested ([15]; 8AU (10 μl/spot of 800 AU/ml)): 0/3
